How the values were obtained:
Type in all cases: in vivo, human
[1] = test system: subjects with mild-to-moderate Alzheimer's disease; assay: Phase 2a Clinical Study A: safety and tolerability
Protocol: (§1) A Phase 2a proof-of-concept (POC) study in subjects with mild-to-moderate dementia of Alzheimer type was conducted. The study was a randomized, double-blind, placebo- and active-controlled, multicenter study designed to evaluate the efficacy and safety of Compound A (ABT-126) in subjects diagnosed with mild-to-moderate Alzheimer's disease, defined as meeting National Institute of Neurological and Communicative Disorders and Stroke/Alzheimer's Disease and Related Disorders Association (NINCDS/ADRDA) criteria for probable AD. […] Subjects were randomized in an equal ratio to one of four treatment groups (placebo, 5 mg Compound A, 25 mg Compound A, or donepezil) for a 12-week treatment period. The primary efficacy measure was the Alzheimer's Disease Assessment Scale—cognitive subscale (ADAS-Cog). Subjects were generally in good health and any chronic medical conditions were stable during the time of screening. Subjects were not taking other medication for Alzheimer's disease.
(§2) The study was a Phase 2, randomized, double-blind, placebo- and active-controlled, multicenter study designed to evaluate the dose-response relationship and safety of two doses of Compound A in subjects diagnosed with mild to moderate AD, defined as meeting NINCDS/ADRDA criteria for probable AD.
(§3) Each subject was instructed to take study drug once-daily in the morning for 12 weeks. Subjects randomized to donepezil took 5 mg donepezil QD for the first 4 weeks and began 10 mg donepezil QD at Week 4 through the remainder of the study. The subject and investigator were blinded to the treatment assignment throughout the study.
(§4) Subjects completed 4 visits during the treatment period at Week 2, Week 4, Week 8 and Week 12. Subjects returned to the study site for a follow-up visit approximately 2 weeks after the Week 12 or premature discontinuation visit for a safety evaluation. In addition, study site personnel contacted each subject's caregiver by telephone approximately 30 days after the subject's last dose of study drug to ascertain the subject's safety status.

[2] = test system: subjects with mild-to-moderate Alzheimer's disease; assay: Phase 2a Clinical Study A: ADAS-cog (11-item) total score; settings: for ADAS-cog (11-Item) Total Score Observed Mean (SD) Final: final evaluation, 12-week treatment; for efficacy in treatment of core symptoms of Alzheimer's disease in human patients (summary in words): Phase 2a study, dose not stated
Protocol: as §1, §2
(§5) The study consisted of a Screening Period of up to 28 days, a 12-week treatment period, and a post-treatment period. The screening period consisted of three visits: Screening Visit 1, Screening Visit 2, and Day −1. Upon completion of Day −1 procedures, eligible subjects were randomized through an Interactive Voice Response/Interactive Web-Based (IVR/IWB) system. Subjects were randomized in an equal ratio to one of four treatment groups (placebo, 5 mg Compound A, 25 mg Compound A, or donepezil).
as §3, §4
(§6) The primary efficacy measure was the Alzheimer's Disease Assessment Scale-cognitive subscale (ADAS-cog). The ADAS-cog was designed to assess the cognitive impairments most common in AD. The ADAS-cog is a subscale of the ADAS, which focuses on cognitive functioning and memory. Two versions were used in the study: an 11-item version and an expanded (13-item) version. The 11-item version of the ADAS-cog was the primary endpoint measure in this study. ADAS-Cog (13-item) was administered throughout the study and the primary efficacy variable was considered the change from baseline to final evaluation on the ADAS-cog total score (11-item).
The 11-item ADAS-cog includes the following tests: Word Recall, Commands, Constructional Praxis, Naming Objects and Fingers, Ideational Praxis, Orientation, Word Recognition, Remembering Test Instructions, Comprehension of Spoken Language, Spoken Language Ability, and Word Finding Difficulty. The total score of the 11-item ADAS-cog ranges from 0 to 70, with a higher score representing greater impairment.
The primary efficacy variable was the change from baseline to the final observation on the ADAS-cog (11-item) total score. The primary efficacy analysis was carried out using an ANCOVA model with treatment and study site as the main effects and baseline score as the covariate. […]

[3] = test system: subjects with mild-to-moderate Alzheimer's disease; assay: Phase 2a Clinical Study A: ADAS-cog (13-item) total score; settings: for ADAS-cog (13-Item) Total Score Observed Mean (SD) Final: final evaluation, 12-week treatment
Protocol: as §1, §2, §5, §3, §6
The 13-item ADAS-cog is comprised of the 11-item ADAS-cog with two additional items (Delayed Word Recall and a Number Cancellation Test) that are designed to assess attention and concentration. The Delayed Word Recall Test (range from 0 to 10) was an addition to the Word Recall Test to enhance sensitivity of the instrument in assessing cognition functioning on patients with mild AD. The Number Cancellation Test (range from 0 to 5) was reliable and sensitive to a broad range of dementia severity, and was recommended as a useful addition to the 11-item ADAS-cog. The total score of the 13-item ADAS-cog ranges from 0 to 85, with a higher score representing greater impairment. The ADAS-cog (13-item) was administered by a certified rater at Screening Visit 1, Screening Visit 2, and Day-1, as well as Weeks 4, 8, and 12 during the study.

[4] = 5 mg QD, ANCOVA, baseline to final evaluation
[5] = 25 mg QD, ANCOVA, baseline to final evaluation

## c1ccc(-c2nnc(O[C@@H]3C4CC5C[C@H]3CN(C5)C4)s2)cc1 [Compound A, (4s)-4-(5-phenyl-1,3,4-thiadiazol-2-yloxy)-1-azatricyclo[3.3.1.1^3,7]decane]
[1]; 5 mg and 25 mg QD (doses up to 25 mg QD), 12 weeks
  tolerability in subjects with AD: generally well tolerated
[1]; 5 mg and 25 mg QD, 12 weeks
  changes in vital signs, ECG parameters or laboratory assessments: no consistent clinically meaningful changes
  serious adverse events considered by the investigator to be related: none that were considered by the investigator to be related
[1]; 25 mg group
  dose dependence of adverse events: no evidence for a dose-dependent increase in adverse events
[2]; [4]
  ADAS-cog (11-Item) Total Score Difference From Placebo LS Mean (SE) of Difference: −0.08
  ADAS-cog (11-Item) Total Score LS Mean (SE) of Change: −0.76 (0.64)
[2]; 5 mg QD, Change to Week 4
  ADAS-cog (11-Item) Total Score Observed Mean (SD) change: −0.36 (4.01)
[2]; 5 mg QD, Change to Week 8
  ADAS-cog (11-Item) Total Score Observed Mean (SD) change: −0.58 (4.83)
[2]; 5 mg QD, Change to Week 12
  ADAS-cog (11-Item) Total Score Observed Mean (SD) change: −1.01 (5.50)
[2]; 5 mg QD, MMRM, Week 4
  ADAS-cog (11-Item) Total Score Difference From Placebo LS Mean (SE) of Difference: 0.03 (0.65)
  ADAS-cog (11-Item) Total Score LS Mean (SE) of Change from Baseline: −0.06 (0.47)
[2]; 5 mg QD, MMRM, Week 8
  ADAS-cog (11-Item) Total Score Difference From Placebo LS Mean (SE) of Difference: 0.07 (0.81)
  ADAS-cog (11-Item) Total Score LS Mean (SE) of Change from Baseline: −0.49 (0.57)
[2]; 5 mg QD, MMRM, Week 12
  ADAS-cog (11-Item) Total Score Difference From Placebo LS Mean (SE) of Difference: 0.03 (0.90)
  ADAS-cog (11-Item) Total Score LS Mean (SE) of Change from Baseline: −0.80 (0.64)
[2]; 5 mg QD
  ADAS-cog (11-Item) Total Score Observed Mean (SD) Final: 24.30 (10.50)
[2]; 5 mg, over the 12 weeks
  cognition relative to placebo, ADAS-cog (11-item) MMRM (in words): no improvement in cognition relative to placebo
[2]; 25 mg
  cognition relative to placebo, ADAS-cog (11-item) MMRM (in words): trend toward statistical significance at Weeks 4 and 8 in cognitive improvement
[2]; [5]
  ADAS-cog (11-Item) Total Score Difference From Placebo LS Mean (SE) of Difference: −1.19
  ADAS-cog (11-Item) Total Score LS Mean (SE) of Change: −1.86 (0.64)
[2]; 25 mg QD, Change to Week 4
  ADAS-cog (11-Item) Total Score Observed Mean (SD) change: −1.18 (4.29)
[2]; 25 mg QD, Change to Week 8
  ADAS-cog (11-Item) Total Score Observed Mean (SD) change: −1.94 (5.12)
[2]; 25 mg QD, Change to Week 12
  ADAS-cog (11-Item) Total Score Observed Mean (SD) change: −2.12 (5.53)
[2]; 25 mg QD, MMRM, Week 4
  ADAS-cog (11-Item) Total Score Difference From Placebo LS Mean (SE) of Difference: −0.84 (0.65)
  ADAS-cog (11-Item) Total Score LS Mean (SE) of Change from Baseline: −0.94 (0.46)
[2]; 25 mg QD, MMRM, Week 8
  ADAS-cog (11-Item) Total Score Difference From Placebo LS Mean (SE) of Difference: −1.11 (0.82)
  ADAS-cog (11-Item) Total Score LS Mean (SE) of Change from Baseline: −1.67 (0.58)
[2]; 25 mg QD, MMRM, Week 12
  ADAS-cog (11-Item) Total Score Difference From Placebo LS Mean (SE) of Difference: −1.14 (0.91)
  ADAS-cog (11-Item) Total Score LS Mean (SE) of Change from Baseline: −1.97 (0.65)
[2]; 25 mg QD
  ADAS-cog (11-Item) Total Score Observed Mean (SD) Final: 26.61 (12.09)
[2]; 25 mg dose, 12 weeks
  efficacy (in words): Evidence for efficacy
[2]
  efficacy in treatment of core symptoms of Alzheimer's disease in human patients (summary in words): signal for efficacy
[2]; listed as ABT-126
  efficacy in treatment of core symptoms of Alzheimer's disease in human patients (summary in words): statistically significant efficacy compared to placebo
[3]; [4]
  ADAS-cog (13-Item) Total Score Difference From Placebo LS Mean (SE) of Difference: −0.13 (1.03)
  ADAS-cog (13-Item) Total Score LS Mean (SE) of Change: −0.90 (0.73)
[3]; 5 mg QD, Change to Week 4
  ADAS-cog (13-Item) Total Score Observed Mean (SD) change: −0.67 (4.31)
[3]; 5 mg QD, Change to Week 8
  ADAS-cog (13-Item) Total Score Observed Mean (SD) change: −0.76 (5.88)
[3]; 5 mg QD, Change to Week 12
  ADAS-cog (13-Item) Total Score Observed Mean (SD) change: −1.20 (6.36)
[3]; 5 mg QD, MMRM, Week 4
  ADAS-cog (13-Item) Total Score Difference From Placebo LS Mean (SE) of Difference: −0.30 (0.73)
  ADAS-cog (13-Item) Total Score LS Mean (SE) of Change from Baseline: −0.30 (0.52)
[3]; 5 mg QD, MMRM, Week 8
  ADAS-cog (13-Item) Total Score Difference From Placebo LS Mean (SE) of Difference: −0.29 (0.95)
  ADAS-cog (13-Item) Total Score LS Mean (SE) of Change from Baseline: −0.64 (0.67)
[3]; 5 mg QD, MMRM, Week 12
  ADAS-cog (13-Item) Total Score Difference From Placebo LS Mean (SE) of Difference: 0.15 (1.04)
  ADAS-cog (13-Item) Total Score LS Mean (SE) of Change from Baseline: −0.99 (0.73)
[3]; 5 mg QD
  ADAS-cog (13-Item) Total Score Observed Mean (SD) Final: 35.92 (12.07)
[3]; [5]
  ADAS-cog (13-Item) Total Score Difference From Placebo LS Mean (SE) of Difference: −1.83 (1.05)
  ADAS-cog (13-Item) Total Score LS Mean (SE) of Change: −2.60 (0.75)
[3]; 25 mg QD, Change to Week 4
  ADAS-cog (13-Item) Total Score Observed Mean (SD) change: −2.38 (4.72)
[3]; 25 mg QD, Change to Week 8
  ADAS-cog (13-Item) Total Score Observed Mean (SD) change: −2.78 (6.05)
[3]; 25 mg QD, Change to Week 12
  ADAS-cog (13-Item) Total Score Observed Mean (SD) change: −2.89 (6.77)
[3]; 25 mg QD, MMRM, Week 4
  ADAS-cog (13-Item) Total Score Difference From Placebo LS Mean (SE) of Difference: −2.13 (0.75)
  ADAS-cog (13-Item) Total Score LS Mean (SE) of Change from Baseline: −2.13 (0.53)
[3]; 25 mg QD, MMRM, Week 8
  ADAS-cog (13-Item) Total Score Difference From Placebo LS Mean (SE) of Difference: −2.06 (0.98)
  ADAS-cog (13-Item) Total Score LS Mean (SE) of Change from Baseline: −2.42 (0.70)
[3]; 25 mg QD, MMRM, Week 12
  ADAS-cog (13-Item) Total Score Difference From Placebo LS Mean (SE) of Difference: −1.61 (1.08)
  ADAS-cog (13-Item) Total Score LS Mean (SE) of Change from Baseline: −2.74 (0.77)
[3]; 25 mg QD
  ADAS-cog (13-Item) Total Score Observed Mean (SD) Final: 38.08 (13.81)

— patent publication US8802693B1, “Azaadamantane derivatives and methods of use” (priority 2011, dated 2014)
